Data: patent publication US20250059180A1 (DONG WHA PHARM. CO., LTD., priority 2022, published 2025)

These compounds were tested on Pfeiffer cells, lymphoma cells having EZH2 mutation (A677G) (assay: Proliferation inhibition of cells of hematologic malignancies (CCK-8, 11 days)). Details: 11 days culture, read-out: Cell proliferation inhibitory effect (IC50).
Assay type: cell-based
Procedure: The growth inhibitory activity of 1,3-benzodioxole derivative compounds represented by chemical formula I of the present invention against Pfeiffer cells, which are lymphoma cells having EZH2 mutation (A677G), was evaluated.
Pfeiffer was cultured using RPMI1640 containing 10% fetal bovine serum. The cells were inoculated into wells of a 96-well culture dish at 10,000 cells each, and cultured for 11 days after treating with the test material for each concentration. For 11 days, the test material was replaced every three to four days. After culturing, the cells were treated with a cell counting kit-8 (CCK-8) reagent for each well, absorbance was measured at 450 nm, and IC50 values for cell proliferation were obtained through curve fitting of non-linear regression in the GraphPad program (GraphPad Prism 5.0 software).

Row | SMILES | IC50 [nM]
1 | CSc1cc(C)[nH]c(=O)c1CNC(=O)c1cc(-c2ccc(N3C[C@@H](C)O[C@@H](C)C3)nc2)c2c(c1C)OC(C)(C1CCN(CC(F)(F)F)CC1)O2 (single isomer, unassigned) [Compound 44] | ≤ 10
2 | CSc1cc(C)[nH]c(=O)c1CNC(=O)c1cc(-c2ccc(N3C[C@@H](C)O[C@@H](C)C3)nc2)c2c(c1C)OC(C)(C1CCN(CC(F)(F)F)CC1)O2 (single isomer, unassigned) [Compound 45] | ≥ 100
3 | CSc1cc(C)[nH]c(=O)c1CNC(=O)c1cc(-c2ccc(N3C[C@@H](C)O[C@@H](C)C3)nc2)c2c(c1C)OC(C)(C1CCN(CC(F)F)CC1)O2 (single isomer, unassigned) [Compound 47] | ≤ 10
4 | CSc1cc(C)[nH]c(=O)c1CNC(=O)c1cc(-c2ccc(N3C[C@@H](C)O[C@@H](C)C3)nc2)c2c(c1C)OC(C)(C1CCN(CC(F)F)CC1)O2 (single isomer, unassigned) [Compound 48] | ≥ 100
5 | CCN1CCC(C2(C)Oc3c(-c4ccc(N5C[C@@H](C)O[C@@H](C)C5)nc4)cc(C(=O)NCc4c(SC)cc(C)[nH]c4=O)c(C)c3O2)CC1 (single isomer, unassigned) [Compound 49] | ≤ 10
6 | CCN1CCC(C2(C)Oc3c(-c4ccc(N5C[C@@H](C)O[C@@H](C)C5)nc4)cc(C(=O)NCc4c(SC)cc(C)[nH]c4=O)c(C)c3O2)CC1 (single isomer, unassigned) [Compound 50] | ≥ 100
7 | CSc1cc(C)[nH]c(=O)c1CNC(=O)c1cc(-c2ccc(N3C[C@@H](C)O[C@@H](C)C3)nc2)c2c(c1C)OC(C)(C1CCN(C(C)C)CC1)O2 (single isomer, unassigned) [Compound 51] | ≤ 10
8 | CSc1cc(C)[nH]c(=O)c1CNC(=O)c1cc(-c2ccc(N3C[C@@H](C)O[C@@H](C)C3)nc2)c2c(c1C)OC(C)(C1CCN(C(C)C)CC1)O2 (single isomer, unassigned) [Compound 52] | ≥ 100
9 | CSc1cc(C)[nH]c(=O)c1CNC(=O)c1cc(-c2ccc(N3C[C@@H](C)O[C@@H](C)C3)nc2)c2c(c1C)OC(C)(C1CCN(C3CCCCC3)CC1)O2 (single isomer, unassigned) [Compound 53] | ≤ 10
10 | CSc1cc(C)[nH]c(=O)c1CNC(=O)c1cc(-c2ccc(N3C[C@@H](C)O[C@@H](C)C3)nc2)c2c(c1C)OC(C)(C1CCN(C3CCCCC3)CC1)O2 (single isomer, unassigned) [Compound 54] | ≥ 100
11 | CSc1cc(C)[nH]c(=O)c1CNC(=O)c1cc(-c2ccc(N3C[C@@H](C)O[C@@H](C)C3)nc2)c2c(c1C)OC(C)(C1CCN(CCc3ccccc3)CC1)O2 (single isomer, unassigned) [Compound 55] | ≤ 10
12 | CSc1cc(C)[nH]c(=O)c1CNC(=O)c1cc(-c2ccc(N3C[C@@H](C)O[C@@H](C)C3)nc2)c2c(c1C)OC(C)(C1CCN(CCc3ccccc3)CC1)O2 (single isomer, unassigned) [Compound 56] | ≥ 100
13 | CSc1cc(C)[nH]c(=O)c1CNC(=O)c1cc(-c2ccc(N3C[C@@H](C)O[C@@H](C)C3)nc2)c2c(c1C)OC(C)(C1CCN(CCCC(F)(F)F)CC1)O2 (single isomer, unassigned) [Compound 57] | ≤ 10
14 | CSc1cc(C)[nH]c(=O)c1CNC(=O)c1cc(-c2ccc(N3C[C@@H](C)O[C@@H](C)C3)nc2)c2c(c1C)OC(C)(C1CCN(CCCC(F)(F)F)CC1)O2 (single isomer, unassigned) [Compound 58] | ≥ 100
15 | CSc1cc(C)[nH]c(=O)c1CNC(=O)c1cc(-c2ccc(N3C[C@@H](C)O[C@@H](C)C3)nc2)c2c(c1C)OC(C)(C1CCN(C(=O)C(F)(F)F)CC1)O2 (single isomer, unassigned) [Compound 59] | ≤ 10
16 | CSc1cc(C)[nH]c(=O)c1CNC(=O)c1cc(-c2ccc(N3C[C@@H](C)O[C@@H](C)C3)nc2)c2c(c1C)OC(C)(C1CCN(C(=O)C(F)(F)F)CC1)O2 (single isomer, unassigned) [Compound 60] | ≥ 100
17 | CSc1cc(C)[nH]c(=O)c1CNC(=O)c1cc(-c2ccc(N3CCOCC3)nc2)c2c(c1C)OC(C)(C1CCN(CC(F)F)CC1)O2 (single isomer, unassigned) [Compound 64, 2-(1-(2,2-difluoroethyl)piperidin-4-yl)-2,4-dimethyl-N-((6-methyl-4-(methylthio)-2-oxo-1,2-dihydropyridin-3-yl)methyl)-7-(6-morpholinopyridin-3-yl)benzo[d][1,3]dioxole-5-carboxamide] | ≤ 10
18 | CSc1cc(C)[nH]c(=O)c1CNC(=O)c1cc(-c2ccc(N3CCOCC3)nc2)c2c(c1C)OC(C)(C1CCN(CC(F)F)CC1)O2 (single isomer, unassigned) [Compound 65, 2-(1-(2,2-difluoroethyl)piperidin-4-yl)-2,4-dimethyl-N-((6-methyl-4-(methylthio)-2-oxo-1,2-dihydropyridin-3-yl)methyl)-7-(6-morpholinopyridin-3-yl)benzo[d][1,3]dioxole-5-carboxamide] | ≥ 100
19 | CCN1CCC(C2(C)Oc3c(-c4ccc(N5CCOCC5)nc4)cc(C(=O)NCc4c(SC)cc(C)[nH]c4=O)c(C)c3O2)CC1 (single isomer, unassigned) [Compound 66, 2-(1-ethylpiperidin-4-yl)-2,4-dimethyl-N-((6-methyl-4-(methylthio)-2-oxo-1,2-dihydropyridin-3-yl)methyl)-7-(6-morpholinopyridin-3-yl)benzo[d][1,3]dioxole-5-carboxamide] | ≤ 10
20 | CCN1CCC(C2(C)Oc3c(-c4ccc(N5CCOCC5)nc4)cc(C(=O)NCc4c(SC)cc(C)[nH]c4=O)c(C)c3O2)CC1 (single isomer, unassigned) [Compound 67, 2-(1-ethylpiperidin-4-yl)-2,4-dimethyl-N-((6-methyl-4-(methylthio)-2-oxo-1,2-dihydropyridin-3-yl)methyl)-7-(6-morpholinopyridin-3-yl)benzo[d][1,3]dioxole-5-carboxamide] | ≥ 100
21 | CSc1cc(C)[nH]c(=O)c1CNC(=O)c1cc(-c2cnc(N3CCOCC3)nc2)c2c(c1C)OC(C)(C1CCN(CC(F)F)CC1)O2 (single isomer, unassigned) [Compound 71, 2-(1-(2,2-difluoroethyl)piperidin-4-yl)-2,4-dimethyl-N-((6-methyl-4-(methylthio)-2-oxo-1,2-dihydropyridin-3-yl)methyl)-7-(2-morpholinopyrimidin-5-yl)benzo[d][1,3]dioxole-5-carboxamide] | ≤ 10
22 | CSc1cc(C)[nH]c(=O)c1CNC(=O)c1cc(-c2cnc(N3CCOCC3)nc2)c2c(c1C)OC(C)(C1CCN(CC(F)F)CC1)O2 (single isomer, unassigned) [Compound 72, 2-(1-(2,2-difluoroethyl)piperidin-4-yl)-2,4-dimethyl-N-((6-methyl-4-(methylthio)-2-oxo-1,2-dihydropyridin-3-yl)methyl)-7-(2-morpholinopyrimidin-5-yl)benzo[d][1,3]dioxole-5-carboxamide] | ≥ 100
23 | CCN1CCC(C2(C)Oc3c(-c4cnc(N5CCOCC5)nc4)cc(C(=O)NCc4c(SC)cc(C)[nH]c4=O)c(C)c3O2)CC1 (single isomer, unassigned) [Compound 73, 2-(1-ethylpiperidin-4-yl)-2,4-dimethyl-N-((6-methyl-4-(methylthio)-2-oxo-1,2-dihydropyridin-3-yl)methyl)-7-(2-morpholinopyrimidin-5-yl)benzo[d][1,3]dioxole-5-carboxamide] | ≤ 10
24 | CCN1CCN(c2ncc(-c3cc(C(=O)NCc4c(SC)cc(C)[nH]c4=O)c(C)c4c3OC(C)(C3CCN(CC(F)(F)F)CC3)O4)cn2)CC1 (single isomer, unassigned) [Compound 76, 7-(2-(4-ethylpiperazin-1-yl)pyrimidin-5-yl)-2,4-dimethyl-N-((6-methyl-4-(methylthio)-2-oxo-1,2-dihydropyridin-3-yl)methyl)-2-(1-(2,2,2-trifluoroethyl)piperidin-4-yl)benzo[d][1,3]dioxole-5-carboxamide] | ≤ 10
25 | CCN1CCN(c2ncc(-c3cc(C(=O)NCc4c(SC)cc(C)[nH]c4=O)c(C)c4c3OC(C)(C3CCN(CC(F)(F)F)CC3)O4)cn2)CC1 (single isomer, unassigned) [Compound 77, 7-(2-(4-ethylpiperazin-1-yl)pyrimidin-5-yl)-2,4-dimethyl-N-((6-methyl-4-(methylthio)-2-oxo-1,2-dihydropyridin-3-yl)methyl)-2-(1-(2,2,2-trifluoroethyl)piperidin-4-yl)benzo[d][1,3]dioxole-5-carboxamide] | ≥ 100
26 | CCN(C)c1ncc(-c2cc(C(=O)NCc3c(SC)cc(C)[nH]c3=O)c(C)c3c2OC(C)(C2CCN(CC(F)F)CC2)O3)cn1 (single isomer, unassigned) [Compound 82, 2-(1-(2,2-difluoroethyl)piperidin-4-yl)-7-(2-(ethyl(methyl)amino)pyrimidin-5-yl)-2,4-dimethyl-N-((6-methyl-4-(methylthio)-2-oxo-1,2-dihydropyridin-3-yl)methyl)benzo[d][1,3]dioxole-5-carboxamide] | 10 to 100

Same assay, conditions: Homo sapiens, Pfeiffer, 264 h, 11 days culture, read-out: Cell proliferation inhibitory effect (IC50)

Row | SMILES | IC50 [nM]
27 | CCN(C)c1ncc(-c2cc(C(=O)NCc3c(SC)cc(C)[nH]c3=O)c(C)c3c2OC(C)(C2CCN(CC(F)F)CC2)O3)cn1 (single isomer, unassigned) [Compound 81, 2-(1-(2,2-difluoroethyl)piperidin-4-yl)-7-(2-(ethyl(methyl)amino)pyrimidin-5-yl)-2,4-dimethyl-N-((6-methyl-4-(methylthio)-2-oxo-1,2-dihydropyridin-3-yl)methyl)benzo[d][1,3]dioxole-5-carboxamide] | ≤ 10
